According to ChEMBL document CHEMBL1156804, “Potent inhibitors of furin and furin-like proprotein convertases containing decarboxylated P1 arginine mimetics” (J Med Chem, 2010):
Residues, ends and D or L forms follow the SMILES beside them. *: point of attachment. Agmatine = N=C(N)NCCCCN*; PhAc = O=C(Cc1ccccc1)*

Tests used:
[1] = target: Furin (Homo sapiens, UniProt P09958)
[2] = target: T1, Proprotein convertase subtilisin/kexin type 6 (Homo sapiens, UniProt P29122); test: Inhibition of human PACE4 expressed in Drosophila schneider 2 cells by fluorescence assay; type: cell-based
T1 sequence (P29122 whole entry): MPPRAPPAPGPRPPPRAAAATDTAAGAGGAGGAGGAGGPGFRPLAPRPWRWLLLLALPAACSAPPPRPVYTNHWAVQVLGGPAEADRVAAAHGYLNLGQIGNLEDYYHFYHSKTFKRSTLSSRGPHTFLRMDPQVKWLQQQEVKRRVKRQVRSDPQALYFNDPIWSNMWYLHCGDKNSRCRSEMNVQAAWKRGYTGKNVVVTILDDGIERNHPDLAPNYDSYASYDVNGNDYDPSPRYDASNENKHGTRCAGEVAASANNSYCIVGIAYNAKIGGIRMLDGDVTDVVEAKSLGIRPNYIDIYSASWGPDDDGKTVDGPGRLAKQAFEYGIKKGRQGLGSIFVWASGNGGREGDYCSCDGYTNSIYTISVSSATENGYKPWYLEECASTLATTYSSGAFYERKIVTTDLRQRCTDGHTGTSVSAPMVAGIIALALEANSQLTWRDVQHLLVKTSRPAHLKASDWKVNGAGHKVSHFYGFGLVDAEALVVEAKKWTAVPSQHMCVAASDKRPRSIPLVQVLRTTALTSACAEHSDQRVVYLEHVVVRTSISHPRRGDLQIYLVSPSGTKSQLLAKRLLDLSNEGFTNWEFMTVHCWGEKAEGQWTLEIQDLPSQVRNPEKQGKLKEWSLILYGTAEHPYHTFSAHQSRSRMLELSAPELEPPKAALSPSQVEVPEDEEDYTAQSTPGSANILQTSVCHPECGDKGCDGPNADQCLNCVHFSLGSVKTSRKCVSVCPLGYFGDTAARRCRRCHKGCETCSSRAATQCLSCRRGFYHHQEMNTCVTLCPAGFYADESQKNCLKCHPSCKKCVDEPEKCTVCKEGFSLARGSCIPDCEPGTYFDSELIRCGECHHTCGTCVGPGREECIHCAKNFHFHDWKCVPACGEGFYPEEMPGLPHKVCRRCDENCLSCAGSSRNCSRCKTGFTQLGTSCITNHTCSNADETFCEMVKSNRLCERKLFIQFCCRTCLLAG

[3] = target: Proprotein convertase subtilisin/kexin type 5 (Homo sapiens, UniProt Q92824); test: Inhibition of human PC5/6 expressed in Drosophila schneider 2 cells by fluorescence assay; type: cell-based
[4] = target: T2, Proprotein convertase subtilisin/kexin type 7 (Homo sapiens, UniProt Q16549); test: Inhibition of human PC7 expressed in Drosophila schneider 2 cells by fluorescence assay; type: cell-based
T2 sequence (Q16549 whole entry): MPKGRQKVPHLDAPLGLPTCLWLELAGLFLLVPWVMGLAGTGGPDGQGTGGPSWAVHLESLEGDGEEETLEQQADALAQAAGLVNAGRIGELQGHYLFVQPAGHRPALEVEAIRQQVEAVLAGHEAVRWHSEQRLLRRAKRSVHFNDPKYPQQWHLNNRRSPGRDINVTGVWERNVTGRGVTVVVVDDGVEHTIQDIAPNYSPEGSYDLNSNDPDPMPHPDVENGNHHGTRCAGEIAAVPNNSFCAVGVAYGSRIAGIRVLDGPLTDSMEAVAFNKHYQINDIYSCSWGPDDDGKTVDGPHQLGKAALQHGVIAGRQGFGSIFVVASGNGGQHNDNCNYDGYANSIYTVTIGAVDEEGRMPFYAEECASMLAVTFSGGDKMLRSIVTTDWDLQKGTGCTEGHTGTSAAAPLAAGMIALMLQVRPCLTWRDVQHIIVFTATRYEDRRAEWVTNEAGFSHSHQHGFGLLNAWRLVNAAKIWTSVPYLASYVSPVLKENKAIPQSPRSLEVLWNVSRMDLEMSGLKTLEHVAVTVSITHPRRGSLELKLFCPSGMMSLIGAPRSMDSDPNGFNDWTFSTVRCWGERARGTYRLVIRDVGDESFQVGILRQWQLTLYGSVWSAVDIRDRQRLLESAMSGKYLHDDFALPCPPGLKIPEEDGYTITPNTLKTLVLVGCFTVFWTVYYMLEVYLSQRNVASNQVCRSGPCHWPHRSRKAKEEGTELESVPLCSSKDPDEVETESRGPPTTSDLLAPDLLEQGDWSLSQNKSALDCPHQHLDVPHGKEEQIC

[5] = target: T3, Neuroendocrine convertase 1 (Homo sapiens, UniProt P29120); test: Inhibition of human PC1/3 expressed in Drosophila schneider 2 cells by fluorescence assay; type: cell-based
T3 sequence (P29120 whole entry): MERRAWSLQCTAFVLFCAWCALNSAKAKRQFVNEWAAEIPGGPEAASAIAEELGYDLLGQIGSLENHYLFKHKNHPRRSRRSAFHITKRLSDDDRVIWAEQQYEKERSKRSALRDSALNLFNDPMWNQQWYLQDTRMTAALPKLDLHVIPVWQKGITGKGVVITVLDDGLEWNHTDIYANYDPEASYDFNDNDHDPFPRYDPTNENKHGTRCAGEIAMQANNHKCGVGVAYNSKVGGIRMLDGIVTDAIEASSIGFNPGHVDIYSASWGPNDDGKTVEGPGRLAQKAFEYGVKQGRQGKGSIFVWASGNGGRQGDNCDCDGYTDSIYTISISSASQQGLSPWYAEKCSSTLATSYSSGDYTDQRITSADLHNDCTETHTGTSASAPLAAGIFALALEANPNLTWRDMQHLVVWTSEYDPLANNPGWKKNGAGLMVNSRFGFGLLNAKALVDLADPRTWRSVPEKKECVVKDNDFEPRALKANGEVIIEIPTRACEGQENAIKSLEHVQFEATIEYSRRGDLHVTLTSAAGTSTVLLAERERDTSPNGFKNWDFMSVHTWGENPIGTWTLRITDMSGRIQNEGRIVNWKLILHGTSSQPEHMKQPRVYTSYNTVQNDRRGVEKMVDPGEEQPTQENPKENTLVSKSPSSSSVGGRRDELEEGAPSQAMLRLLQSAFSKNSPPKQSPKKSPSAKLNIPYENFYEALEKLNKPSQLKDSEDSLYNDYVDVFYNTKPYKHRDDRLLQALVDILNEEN

[6] = target: T4, Neuroendocrine convertase 2 (Homo sapiens, UniProt P16519); test: Inhibition of human PC2 expressed in Drosophila schneider 2 cells by fluorescence assay; type: cell-based
T4 sequence (P16519 whole entry): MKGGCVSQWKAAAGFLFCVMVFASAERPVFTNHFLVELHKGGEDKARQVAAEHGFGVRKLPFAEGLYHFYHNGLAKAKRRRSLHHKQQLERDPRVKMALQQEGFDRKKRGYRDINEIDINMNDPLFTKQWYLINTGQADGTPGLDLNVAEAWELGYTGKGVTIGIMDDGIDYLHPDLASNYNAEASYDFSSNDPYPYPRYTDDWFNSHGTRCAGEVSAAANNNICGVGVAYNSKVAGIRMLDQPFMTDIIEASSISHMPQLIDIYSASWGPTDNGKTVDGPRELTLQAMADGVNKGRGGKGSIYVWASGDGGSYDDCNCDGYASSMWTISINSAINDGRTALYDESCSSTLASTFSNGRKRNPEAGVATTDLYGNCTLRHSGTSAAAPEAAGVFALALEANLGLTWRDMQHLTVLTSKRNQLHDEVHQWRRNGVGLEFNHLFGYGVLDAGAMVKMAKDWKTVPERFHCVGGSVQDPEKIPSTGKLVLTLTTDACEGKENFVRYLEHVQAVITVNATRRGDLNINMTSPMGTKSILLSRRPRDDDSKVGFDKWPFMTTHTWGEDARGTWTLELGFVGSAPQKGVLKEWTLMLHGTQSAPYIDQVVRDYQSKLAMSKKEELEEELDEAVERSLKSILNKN

[7] = target: Prothrombin (Homo sapiens, UniProt P00734); test: Inhibition of thrombin
[8] = target: Coagulation factor X (Homo sapiens, UniProt P00742); test: Inhibition of factor 10a
[9] = target: Plasminogen (Homo sapiens, UniProt P00747); test: Inhibition of plasmin
[10] = cells; type: cell-based; conditions: Canis lupus familiaris, MDCK

Plasminogen, sequence (P00747 97-580 limits assumed): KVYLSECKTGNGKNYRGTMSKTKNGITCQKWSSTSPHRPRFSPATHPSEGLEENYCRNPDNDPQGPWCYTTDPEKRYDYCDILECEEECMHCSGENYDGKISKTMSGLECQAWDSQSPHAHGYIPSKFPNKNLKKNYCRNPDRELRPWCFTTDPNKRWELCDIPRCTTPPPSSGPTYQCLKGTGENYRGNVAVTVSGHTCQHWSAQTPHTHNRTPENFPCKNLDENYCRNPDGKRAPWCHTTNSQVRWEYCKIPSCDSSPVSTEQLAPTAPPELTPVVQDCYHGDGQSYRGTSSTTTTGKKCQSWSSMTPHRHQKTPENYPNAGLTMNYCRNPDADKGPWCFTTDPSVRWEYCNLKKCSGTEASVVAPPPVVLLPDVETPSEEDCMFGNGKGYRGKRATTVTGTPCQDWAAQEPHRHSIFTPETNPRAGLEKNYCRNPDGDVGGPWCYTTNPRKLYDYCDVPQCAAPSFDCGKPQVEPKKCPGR
Plasminogen, sequence (P00747 581-810 limits assumed): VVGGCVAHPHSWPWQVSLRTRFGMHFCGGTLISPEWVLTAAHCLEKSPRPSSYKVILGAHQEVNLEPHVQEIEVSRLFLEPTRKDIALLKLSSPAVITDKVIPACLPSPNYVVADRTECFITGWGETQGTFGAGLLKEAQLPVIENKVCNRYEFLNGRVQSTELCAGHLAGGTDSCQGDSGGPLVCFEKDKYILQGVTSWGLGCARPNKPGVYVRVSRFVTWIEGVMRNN
Furin, sequence (P09958 whole entry): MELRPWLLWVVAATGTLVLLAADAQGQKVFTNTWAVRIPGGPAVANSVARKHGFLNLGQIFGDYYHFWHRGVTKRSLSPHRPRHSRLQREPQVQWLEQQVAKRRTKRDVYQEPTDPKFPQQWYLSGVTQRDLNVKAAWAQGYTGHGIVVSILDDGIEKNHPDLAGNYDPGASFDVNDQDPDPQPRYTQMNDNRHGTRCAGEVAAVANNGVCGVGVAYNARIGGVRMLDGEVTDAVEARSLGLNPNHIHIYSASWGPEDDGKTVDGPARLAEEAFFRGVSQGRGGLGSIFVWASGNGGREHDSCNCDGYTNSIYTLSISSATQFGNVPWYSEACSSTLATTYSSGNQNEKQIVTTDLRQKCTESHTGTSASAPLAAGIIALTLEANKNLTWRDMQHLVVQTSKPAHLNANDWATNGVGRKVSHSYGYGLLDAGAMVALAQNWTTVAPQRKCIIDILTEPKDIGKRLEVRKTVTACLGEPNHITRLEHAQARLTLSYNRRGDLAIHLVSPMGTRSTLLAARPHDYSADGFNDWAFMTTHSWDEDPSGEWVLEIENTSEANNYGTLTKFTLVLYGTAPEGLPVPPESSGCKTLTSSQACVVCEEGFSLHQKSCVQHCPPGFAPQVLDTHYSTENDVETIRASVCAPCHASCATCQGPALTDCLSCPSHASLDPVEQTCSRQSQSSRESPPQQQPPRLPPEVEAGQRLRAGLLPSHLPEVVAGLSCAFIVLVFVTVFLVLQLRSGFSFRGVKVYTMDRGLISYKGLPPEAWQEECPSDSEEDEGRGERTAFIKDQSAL
Proprotein convertase subtilisin/kexin type 5, sequence (Q92824 whole entry): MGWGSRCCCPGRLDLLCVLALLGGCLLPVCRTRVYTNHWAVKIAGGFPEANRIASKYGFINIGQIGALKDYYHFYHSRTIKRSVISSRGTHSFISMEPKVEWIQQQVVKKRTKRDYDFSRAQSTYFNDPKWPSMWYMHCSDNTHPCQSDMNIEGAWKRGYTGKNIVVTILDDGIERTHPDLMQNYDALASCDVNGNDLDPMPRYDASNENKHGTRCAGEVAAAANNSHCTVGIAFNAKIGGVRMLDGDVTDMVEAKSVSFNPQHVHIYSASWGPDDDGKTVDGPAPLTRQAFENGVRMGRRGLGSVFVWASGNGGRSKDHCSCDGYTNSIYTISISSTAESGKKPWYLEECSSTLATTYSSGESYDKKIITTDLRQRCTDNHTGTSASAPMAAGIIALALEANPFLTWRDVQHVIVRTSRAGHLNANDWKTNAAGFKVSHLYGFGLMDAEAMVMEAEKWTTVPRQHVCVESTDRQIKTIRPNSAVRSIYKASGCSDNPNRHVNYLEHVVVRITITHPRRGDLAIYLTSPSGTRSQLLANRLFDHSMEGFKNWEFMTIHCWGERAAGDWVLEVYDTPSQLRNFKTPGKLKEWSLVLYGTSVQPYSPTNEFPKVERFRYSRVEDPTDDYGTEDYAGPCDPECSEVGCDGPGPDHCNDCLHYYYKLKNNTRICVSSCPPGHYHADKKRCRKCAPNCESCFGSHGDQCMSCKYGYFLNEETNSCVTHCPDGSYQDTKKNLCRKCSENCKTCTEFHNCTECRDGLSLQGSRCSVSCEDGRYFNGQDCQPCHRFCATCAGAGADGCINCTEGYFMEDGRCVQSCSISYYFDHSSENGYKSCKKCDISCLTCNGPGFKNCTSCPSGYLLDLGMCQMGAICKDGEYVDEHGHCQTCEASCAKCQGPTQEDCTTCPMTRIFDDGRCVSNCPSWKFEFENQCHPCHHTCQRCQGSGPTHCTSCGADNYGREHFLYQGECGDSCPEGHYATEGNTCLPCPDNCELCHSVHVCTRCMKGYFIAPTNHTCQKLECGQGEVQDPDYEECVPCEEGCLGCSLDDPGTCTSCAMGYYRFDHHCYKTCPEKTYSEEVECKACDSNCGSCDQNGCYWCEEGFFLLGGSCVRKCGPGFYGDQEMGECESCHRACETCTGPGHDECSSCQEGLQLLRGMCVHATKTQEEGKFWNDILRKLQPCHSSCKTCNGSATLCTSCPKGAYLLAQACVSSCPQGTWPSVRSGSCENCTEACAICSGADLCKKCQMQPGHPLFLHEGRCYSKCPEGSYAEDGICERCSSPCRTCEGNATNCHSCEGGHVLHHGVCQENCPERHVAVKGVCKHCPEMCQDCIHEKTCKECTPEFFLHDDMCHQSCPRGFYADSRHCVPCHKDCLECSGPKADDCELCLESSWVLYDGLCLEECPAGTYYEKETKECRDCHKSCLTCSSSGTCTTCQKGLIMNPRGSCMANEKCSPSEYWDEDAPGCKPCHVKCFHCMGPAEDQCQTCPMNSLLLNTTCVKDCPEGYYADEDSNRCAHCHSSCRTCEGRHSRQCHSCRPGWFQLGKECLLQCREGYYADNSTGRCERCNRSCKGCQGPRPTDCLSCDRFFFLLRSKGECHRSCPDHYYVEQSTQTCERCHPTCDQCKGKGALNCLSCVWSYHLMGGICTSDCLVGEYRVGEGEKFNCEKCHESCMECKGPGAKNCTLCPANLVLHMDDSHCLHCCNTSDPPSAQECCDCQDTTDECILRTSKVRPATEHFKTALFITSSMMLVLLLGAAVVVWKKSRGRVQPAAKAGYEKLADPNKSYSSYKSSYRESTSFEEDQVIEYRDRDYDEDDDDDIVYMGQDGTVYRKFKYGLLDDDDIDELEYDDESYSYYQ
Coagulation factor X, sequence (P00742 41-179 limits assumed): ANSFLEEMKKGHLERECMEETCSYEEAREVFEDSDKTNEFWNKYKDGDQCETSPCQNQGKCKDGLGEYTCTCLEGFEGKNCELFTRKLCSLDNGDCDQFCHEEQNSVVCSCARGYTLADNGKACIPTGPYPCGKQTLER
Coagulation factor X, sequence (P00742 235-488 limits assumed): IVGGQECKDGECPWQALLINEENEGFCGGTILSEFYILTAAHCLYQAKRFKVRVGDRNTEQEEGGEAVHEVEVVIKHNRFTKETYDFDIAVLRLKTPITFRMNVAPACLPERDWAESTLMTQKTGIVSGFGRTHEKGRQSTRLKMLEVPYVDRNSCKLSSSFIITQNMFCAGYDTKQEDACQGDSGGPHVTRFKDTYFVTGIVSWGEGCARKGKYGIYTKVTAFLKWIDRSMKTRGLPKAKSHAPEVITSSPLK

| SMILES | Ki [1] | Ki [2] | Ki [3] | Ki [4] | Ki [5] | Ki [6] | other results |
| --- | --- | --- | --- | --- | --- | --- | --- |
| CC(C)[C@H](NC(=O)[C@H](CCCN=C(N)N)NC(=O)Cc1ccccc1)C(=O)N[C@@H](CCCN=C(N)N)C(=O)NCc1cccc(CN=C(N)N)c1 | 2.73 µM |  |  |  |  |  |  |
| CC(C)[C@H](NC(=O)[C@H](CCCN=C(N)N)NC(=O)Cc1ccccc1)C(=O)N[C@@H](CCCN=C(N)N)C(=O)NCCCN=C(N)N | 0.063 µM |  |  |  |  |  |  |
| CC(C)[C@H](NC(=O)[C@H](CCCN=C(N)N)NC(=O)Cc1ccccc1)C(=O)N[C@@H](CCCN=C(N)N)C(=O)NCCCCN | 7.49 µM |  |  |  |  |  |  |
| CC(C)[C@H](NC(=O)[C@H](CCCNC(=N)N)NC(=O)Cc1ccccc1)C(=O)N[C@@H](CCCNC(=N)N)C(=O)NCC1CCN(C(=N)N)CC1 | 0.053 µM | 0.067 µM | 0.173 µM | > 10 µM | 0.07 µM | > 10 µM | Ki [7]: 50 µM; Ki [8]: 123 µM; Ki [9]: > 1000 µM |
| CC(C)[C@H](NC(=O)[C@H](CCCN=C(N)N)NC(=O)Cc1ccccc1)C(=O)N[C@@H](CCCN=C(N)N)C(=O)NCc1ccc(CN=C(N)N)cc1 | 1.43 µM |  |  |  |  |  |  |
| CCCCCCCCCC(=O)N[C@@H](CCCN=C(N)N)C(=O)N[C@H](C(=O)N[C@@H](CCCN=C(N)N)C(=O)NCc1ccc(C(=N)N)cc1)C(C)C | 0.0016 µM | 0.003 µM | 0.0063 µM | 0.968 µM | 0.00365 µM | 0.055 µM |  |
| CC(=O)N[C@@H](CCCNC(=N)N)C(=O)N[C@H](C(=O)N[C@@H](CCCNC(=N)N)C(=O)NCc1ccc(C(=N)N)cc1)C(C)C | 0.001 µM | 0.0024 µM | 0.0036 µM | 5.13 µM | 0.0017 µM | 1.39 µM |  |
| CC(C)[C@H](NC(=O)[C@H](CCCNC(=N)N)NC(=O)Cc1ccccc1)C(=O)N[C@@H](CCCNC(=N)N)C(=O)NCc1ccc(CN)cc1 | 0.627 µM |  |  |  |  |  |  |
| CC(C)[C@H](NC(=O)[C@H](CCCN=C(N)N)NC(=O)Cc1ccccc1)C(=O)N[C@@H](CCCN=C(N)N)C(=O)NCCCCCN=C(N)N | 1.07 µM |  |  |  |  |  |  |
| CC(C)[C@H](NC(=O)[C@H](CCCNC(=N)N)NC(=O)Cc1ccccc1)C(=O)N[C@@H](CCCNC(=N)N)C(=O)NCCCCNC(=N)N (PhAc-Arg-Val-Arg-Agmatine) | 0.078 µM | 0.042 µM | 0.085 µM | > 10 µM | 0.053 µM | > 10 µM | Ki [7]: 102 µM; Ki [8]: 83 µM; Ki [9]: 97 µM |
| CC(C)[C@H](NC(=O)[C@H](CCCNC(=N)N)NC(=O)Cc1ccccc1)C(=O)N[C@@H](CCCNC(=N)N)C(=O)NCc1ccc(C(=N)N)cc1 |  | 0.0006 µM | 0.0016 µM | 6.15 µM | 0.00075 µM | 0.312 µM | Ki [7]: 23 µM; Ki [8]: 40 µM; Ki [9]: 6 µM; IC50 [10]: 10 µM |
| CC(C)[C@H](NC(=O)[C@H](CCCNC(=N)N)NC(=O)Cc1ccccc1)C(=O)N[C@@H](CCCNC(=N)N)C(=O)NCCCN | 3.02 µM |  |  |  |  |  |  |
| CC(C)[C@H](NC(=O)[C@H](CCCNC(=N)N)NC(=O)Cc1ccccc1)C(=O)N[C@@H](CCCNC(=N)N)C(=O)NCCCCCN | 0.553 µM |  |  |  |  |  |  |
| CC(C)[C@H](NC(=O)[C@H](CCCN=C(N)N)NC(=O)Cc1ccccc1)C(=O)N[C@@H](CCCN=C(N)N)C(=O)NCC1CCNCC1 | 9.71 µM |  |  |  |  |  |  |
| CC(C)[C@H](NC(=O)[C@H](CCCN=C(N)N)NC(=O)Cc1ccccc1)C(=O)N[C@@H](CCCN=C(N)N)C(=O)NCc1cccc(CN)c1 | 1.32 µM |  |  |  |  |  |  |
| CCCCCCCCCC(=O)N[C@@H](CCCN=C(N)N)C(=O)N[C@H](C(=O)N[C@@H](CCCCN)C(=O)NCc1ccc(C(=N)N)cc1)C(C)C | 0.0033 µM |  |  |  |  |  |  |
